Where “and” joins values, the source holds several entries; their conditions need not be identical. Identical values can stand only once. Like-named read-outs stand apart in the source and are kept apart here.
How the values were obtained:
[1] = system: DBA1/J mice; experiment: Collagen type II induced arthritis, therapeutic treatment (Example 2); type: in vivo; conditions: for Ankylosis score / Incidence of ankylosis (% of animals affected) / Incidence of arthritis (% of animals affected) / Mean Arthritic Score / Mean number of affected paws: treated day 30-49
Protocol: Male DBA1/J mice were immunized intradernally with collagen type II emulsified in complete Freund's Adjuvant on day 0 and day 21. Treatment of mice was started on day 30 (10 animals/treatment group; the animals were randomized so that both groups had similar arthritic symptoms at the start). Mice were treated orally with vehicle [DMSO: cremophor: 0.9% NaCl solution, 1:1:8 (v:v:v)] or compound 75 at a dose of 100 mg/kg. Three times per week symptoms of arthritis were scored. Animals were treated till day 49, at day 50 animals were sacrificed, blood was collected for analysis of anti-collagen antibodies, and […].
Trained lab personnel evaluated the severity and incidence of the arthritic symptoms at regular intervals without knowing which animals had received vehicle or drug.
In Table 14, the mean arthritic score is shown. For each paw, a score ranging from 0 (normal) to 2 (maximal redness and swelling) is given. The score for the 4 paws is summed up and averaged for the 10 animals per group (=Mean arthritic score).
Table 16 summarizes the results of the observations for the occurrence of ankylosis as the arthritis progresses. Each paw is scored as follows: 0 for no ankylosis, 1 for ankylosis. Again the results for the four paws are summed up and averaged for the 10 animals. Ankylosis starts to occur around day 30. During the whole treatment period, ankylosis is lower in the drug treated group than in the vehicle treated group.
In table 19, the radiographic score of the individual mice is depicted. For each paw, a score ranging from 0 (normal) to 2 (deformation of the whole paw was given. The scores of the four paws are summed up.

[2] = system: Lewis rats; type: in vivo; conditions: for % change in body-weight #<−21% / % change in body-weight #>10% / % change in body-weight Mean: day 14-21, 6 animals; for % change in swelling Mean / % change in swelling #<80% / % change in swelling #>170% / % change in swelling #>150%: paw swelling day 21 as % of day 14, 6 animals; for % change in swelling #<80%: criterion for anti-inflammatory activity; for % change in swelling #>170%: pro-inflammatory activity; for % change in swelling #>150%: tendency towards pro-inflammatory activity
Protocol: Male SPF-breeded Lewis rats (Charles River; 225-275 g) were housed in individual cages under standard laboratory conditions (21±2° C.; 65±15% relative humidity; light-dark cycle set at 12 h). Mycobacterium butyricum (heat-killed and suspended in paraffin oil at 5 mg/ml; 0.05 ml) was inoculated intradermally at the tail base of the rats. On day 14 after inoculation, the diameters (Ø) of the hind paws and tibiotarsal joints (ΣØ14) were compared with the initial diameters (ΣØ0) and rats with a significant swelling (ΔØ14-0≧6.0 mm) were assigned to the various treatment groups (n=6; […]).
Body weight and paw diameters were measured at days 14 and after 1-week treatment at day 21. Diet consumption was also measured and the number of dead animals on day 21 was noted. Paw swelling at day 21 was expressed as a percentage of the initial inflammation at the start of the treatment (day 14). Control animals were included in each experimental session. Test compounds were administered via a medicated diet. For that purpose, compounds were mixed with ground pellets in proportion to give an approximate daily dose. This medicated diet was administered ad libitum during the experimental period. The real dose was calculated by multiplying the consumed amount of diet with the concentration of the test compound in the diet.
Based on a frequency distribution of a series of control data (n=181), all-or-nothing criteria for drug-induced effects were established. The averaged body weight change during the 1 week experimental period in the control population was a decrease of 7 g. […] In the same set of control animals, paw swelling at day 21 was on the average 117% of the initial value at day 14.

[3] = 100 mg/kg orally from day 30, versus vehicle
[4] = day 22 after immunization, 100 mpk orally
[5] = day 24 after immunization, 100 mpk orally
[6] = day 28 after immunization, 100 mpk orally
[7] = day 29 after immunization, 100 mpk orally
[8] = day 31 after immunization, 100 mpk orally
[9] = day 34 after immunization, 100 mpk orally
[10] = day 36 after immunization, 100 mpk orally
[11] = day 38 after immunization, 100 mpk orally
[12] = day 41 after immunization, 100 mpk orally
[13] = day 43 after immunization, 100 mpk orally
[14] = day 45 after immunization, 100 mpk orally
[15] = day 48 after immunization, 100 mpk orally
[16] = day 50 after immunization, 100 mpk orally
[17] = dose 40 mg/kg via medicated diet
[18] = dose 80 mg/kg via medicated diet
[19] = dose 160 mg/kg via medicated diet

Cn1cncc1C(N)(c1ccc(Cl)cc1)c1ccc2c(c1)c(-c1cccc(Cl)c1)cc(=O)n2C (single isomer, unassigned; (+)) [Compound 75, (+)-6-[amino(4-chlorophenyl)(1-methyl-1H-imidazol-5-yl)methyl]-4-(3-chlorophenyl)-1-methyl-2(1H)-quinolinone]
effect on mean arthritic score (in words) [1, 3]: clearly suppresses the arthritic score | effect on mean number of affected paws (in words) [1, 3]: reduces that number | lethalities ([1]; 100 mg/kg orally, day 30-49): no lethalities were observed | signs of toxicity ([1]; 100 mg/kg orally, day 30-49): did not show any signs of toxicity | Radiographic score, Average ([1]; average of 10 mice, 100 mpk orally, treated day 30-49, radiographs at day 50): 2.3 | Ankylosis score [1, 4]: 0.00 | Incidence of ankylosis (% of animals affected) [1, 4]: 0% | Incidence of arthritis (% of animals affected) [1, 4]: 0% | Mean Arthritic Score [1, 4]: 0.00 | Mean number of affected paws [1, 4]: 0.00 | Ankylosis score [1, 5]: 0.00 | Incidence of ankylosis (% of animals affected) [1, 5]: 0% | Incidence of arthritis (% of animals affected) [1, 5]: 10% | Mean Arthritic Score [1, 5]: 0.03 | Mean number of affected paws [1, 5]: 0.10 | Ankylosis score [1, 6]: 0.00 | Incidence of ankylosis (% of animals affected) [1, 6]: 0% | Incidence of arthritis (% of animals affected) [1, 6]: 90% | Mean Arthritic Score [1, 6]: 3.50 | Mean number of affected paws [1, 6]: 2.40 | Ankylosis score [1, 7]: 0.00 | Incidence of ankylosis (% of animals affected) [1, 7]: 0% | Incidence of arthritis (% of animals affected) [1, 7]: 100% | Mean Arthritic Score [1, 7]: 4.25 | Mean number of affected paws [1, 7]: 2.70 | Ankylosis score [1, 8]: 0.80 | Incidence of ankylosis (% of animals affected) [1, 8]: 60% | Incidence of arthritis (% of animals affected) [1, 8]: 100% | Mean Arthritic Score [1, 8]: 4.03 | Mean number of affected paws [1, 8]: 2.80 | Ankylosis score [1, 9]: 2.50 | Incidence of ankylosis (% of animals affected) [1, 9]: 90% | Incidence of arthritis (% of animals affected) [1, 9]: 100% | Mean Arthritic Score [1, 9]: 3.80 | Mean number of affected paws [1, 9]: 2.60 | Ankylosis score [1, 10]: 2.40 | Incidence of ankylosis (% of animals affected) [1, 10]: 90% | Incidence of arthritis (% of animals affected) [1, 10]: 90% | Mean Arthritic Score [1, 10]: 3.00 | Mean number of affected paws [1, 10]: 2.20 | Ankylosis score [1, 11]: 2.60 | Incidence of ankylosis (% of animals affected) [1, 11]: 100% | Incidence of arthritis (% of animals affected) [1, 11]: 90% | Mean Arthritic Score [1, 11]: 3.20 | Mean number of affected paws [1, 11]: 2.60 | Ankylosis score [1, 12]: 1.70 | Incidence of ankylosis (% of animals affected) [1, 12]: 70% | Incidence of arthritis (% of animals affected) [1, 12]: 90% | Mean Arthritic Score [1, 12]: 3.45 | Mean number of affected paws [1, 12]: 2.40 | Ankylosis score [1, 13]: 2.20 | Incidence of ankylosis (% of animals affected) [1, 13]: 80% | Incidence of arthritis (% of animals affected) [1, 13]: 90% | Mean Arthritic Score [1, 13]: 2.15 | Mean number of affected paws [1, 13]: 2.20 | Ankylosis score [1, 14]: 1.90 | Incidence of ankylosis (% of animals affected) [1, 14]: 80% | Incidence of arthritis (% of animals affected) [1, 14]: 100% | Mean Arthritic Score [1, 14]: 1.33 | Mean number of affected paws [1, 14]: 1.90 | Ankylosis score [1, 15]: 2.10 | Incidence of ankylosis (% of animals affected) [1, 15]: 90% | Incidence of arthritis (% of animals affected) [1, 15]: 60% | Mean Arthritic Score [1, 15]: 1.58 | Mean number of affected paws [1, 15]: 1.50 | Incidence of arthritis (% of animals affected) ([1]; day 50 after immunization (end of the treatment period), 100 mpk orally): 60% | Ankylosis score [1, 16]: 0.80 | Incidence of ankylosis (% of animals affected) [1, 16]: 40% | Mean Arthritic Score [1, 16]: 0.88 | Mean number of affected paws [1, 16]: 1.20 | Radiographic score of individual mice ([1]; individual mouse, sum of four paws (0-2 each), 100 mpk orally, treated day 30-49, radiographs at day 50, 100 mg/kg): 2.5 (2×) and 1.0 and 0.0 (2×) and 5.25 and 2.0 (2×) and 3.0 and 4.75 | Radiographic score, Median ([1]; median of 10 mice, 100 mpk orally, treated day 30-49, radiographs at day 50): 2.25 | arthritic symptoms (paw swelling, occurrence of ankylosis and deterioration of the joints as observed on radiographs) ([1]; oral administration to mice with established arthritis): reduces the arthritic symptoms | % change in body-weight #<−21% [2, 17]: 0 number of animals | % change in body-weight #>10% [2, 17]: 0 number of animals | % change in body-weight Mean [2, 17]: −9% | % change in swelling Mean [2, 17]: 94% | % change in swelling #<80% [2, 17]: 0 number of animals | % change in swelling #>170% [2, 17]: 0 number of animals | % change in swelling #>150% [2, 17]: 0 number of animals | % change in body-weight #<−21% [2, 18]: 4 number of animals | % change in body-weight #>10% [2, 18]: 0 number of animals | % change in body-weight Mean [2, 18]: −19% | % change in swelling Mean [2, 18]: 86% | % change in swelling #<80% [2, 18]: 3 number of animals | % change in swelling #>170% [2, 18]: 0 number of animals | % change in swelling #>150% [2, 18]: 0 number of animals | % change in body-weight #<−21% [2, 19]: 4 number of animals | % change in body-weight #>10% [2, 19]: 0 number of animals | % change in body-weight Mean [2, 19]: −24% | % change in swelling Mean [2, 19]: 79% | % change in swelling #<80% [2, 19]: 3 number of animals | % change in swelling #>170% [2, 19]: 0 number of animals | % change in swelling #>150% [2, 19]: 0 number of animals

From patent US6451812B1, “Farnesyl protein transferase inhibitors for treating arthropathies” (Janssen Pharmaceutica N.V., priority 1998, dated 2002)
